Results: patent US7786141B2 (Vertex Pharmaceuticals Incorporated, priority 2004, dated 2010)

Experiments:
M1 muscarinic receptor = target: T1, M1 muscarinic receptor (Homo sapiens, UniProt P11229); assay: Functional mobilization of intracellular calcium (FLIPR) in M1-CHO cells; type: cell-based; conditions: Table 4; for Emax: 100% efficacy is the maximum response obtained with the Carbachol control; for M1 Activity: modulating M1 receptor
T1 construct: expressed in transfected cells; host or cells: CHO (M1-CHO)
T1 sequence (P11229 1-460): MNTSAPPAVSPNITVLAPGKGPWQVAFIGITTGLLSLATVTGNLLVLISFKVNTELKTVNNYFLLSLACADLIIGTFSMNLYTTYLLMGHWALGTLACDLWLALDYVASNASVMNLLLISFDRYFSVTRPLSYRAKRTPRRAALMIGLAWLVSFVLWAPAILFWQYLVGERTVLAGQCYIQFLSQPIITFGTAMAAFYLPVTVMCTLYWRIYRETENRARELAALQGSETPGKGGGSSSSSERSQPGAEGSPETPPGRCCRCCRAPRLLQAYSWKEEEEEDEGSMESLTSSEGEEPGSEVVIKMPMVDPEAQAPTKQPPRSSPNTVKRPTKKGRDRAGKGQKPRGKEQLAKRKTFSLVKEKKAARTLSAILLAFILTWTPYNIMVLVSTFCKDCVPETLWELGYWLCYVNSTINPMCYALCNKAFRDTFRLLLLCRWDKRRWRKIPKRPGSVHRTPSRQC
How it was run: (§1)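 Measured via Fluo-3 fluorescence on a FLIPR, CHO cells with either muscarinic subtype received compound in 0.5% DMSO. Antagonism was assessed after 15 min pre-incubation followed by carbachol at each subtype's EC80; agonism from compound addition alone.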

M4 muscarinic receptor = target: T2, M4 muscarinic receptor (Homo sapiens, UniProt P08173); assay: Functional mobilization of intracellular calcium (FLIPR) in M4-CHO cells; type: cell-based; conditions: Table 4; for Emax: 100% efficacy is the maximum response obtained with the Carbachol control; for M4 Activity: modulating M4 receptor
T2 construct: expressed in transfected cells; host or cells: CHO (M4-CHO)
T2 sequence (P08173 1-479): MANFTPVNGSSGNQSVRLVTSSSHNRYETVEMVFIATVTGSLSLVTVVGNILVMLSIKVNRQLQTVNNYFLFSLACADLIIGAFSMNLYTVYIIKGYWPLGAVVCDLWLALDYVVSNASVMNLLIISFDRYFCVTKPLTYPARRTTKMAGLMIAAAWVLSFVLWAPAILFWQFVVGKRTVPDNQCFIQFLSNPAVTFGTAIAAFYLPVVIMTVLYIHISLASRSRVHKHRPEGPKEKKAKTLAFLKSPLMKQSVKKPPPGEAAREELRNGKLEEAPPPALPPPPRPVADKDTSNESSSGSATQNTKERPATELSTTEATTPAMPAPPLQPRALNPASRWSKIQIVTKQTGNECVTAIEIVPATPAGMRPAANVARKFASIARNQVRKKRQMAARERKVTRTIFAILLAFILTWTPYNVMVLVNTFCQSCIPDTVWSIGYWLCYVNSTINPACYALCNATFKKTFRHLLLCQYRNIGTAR
How it was run: as §1

Compound	Emax (M1 muscarinic receptor) [%]	M1 Activity (M1 muscarinic receptor)	Emax (M4 muscarinic receptor) [%]	M4 Activity (M4 muscarinic receptor)
COC(=O)NC1CC2(CCN(C3C[C@@H]4CC[C@@H]3C4)CC2)c2ccccc21 (stereo partly shown) [compound 586]	25 to 100	xxx (activity was measured to be less than 2.0 μM)	25 to 100	xxx (activity was measured to be less than 2.0 μM)
CCOC(=O)N1CCC(N2CCCC3(CC2)CN(C(C)=O)c2ccc(F)cc23)CC1 (stereo not shown) [compound 587]	25 to 100	xxx (activity was measured to be less than 2.0 μM)	25 to 100	xxx (activity was measured to be less than 2.0 μM)
CN(C)C(=O)N1CC2(CCN(C3CCN(C(=O)COc4ccccc4)CC3)CC2)c2cc(F)ccc21 [compound 588]	< 25	x (activity was measured to be greater than 5.0 μM)	< 25	x (activity was measured to be greater than 5.0 μM)
CC#CC(C)OC(=O)N1CCC(N2CCC3(CC2)CN(C(C)=O)c2ccccc23)CC1 (stereo not shown) [compound 589]	< 25	x (activity was measured to be greater than 5.0 μM)	< 25	x (activity was measured to be greater than 5.0 μM)
CCCCC(=O)N1CCC(N2CCC3(CC2)CN(C(=O)N(C)C)c2ccc(F)cc23)CC1 [compound 590]	25 to 100	xx (activity was measured to be between 2.0 μM and 5.0 μM)	< 25	xx (activity was measured to be between 2.0 μM and 5.0 μM)
CCOC(=O)N1CCC(N2CCC3(CCCc4ccccc43)CC2)CC1 [compound 591]	> 100	xxx (activity was measured to be less than 2.0 μM)	25 to 100	xxx (activity was measured to be less than 2.0 μM)
CN(C)C(=O)N1CC2(CCN(C3CCN(C(=O)CC(F)(F)F)CC3)CC2)c2cc(F)ccc21 [compound 592]	25 to 100	xx (activity was measured to be between 2.0 μM and 5.0 μM)	< 25	x (activity was measured to be greater than 5.0 μM)
Cc1ccc(N2CCC(N3CCC4(CC3)CN(C(=O)N(C)C)c3ccc(F)cc34)CC2)nn1 [compound 594]	25 to 100	x (activity was measured to be greater than 5.0 μM)	< 25	xx (activity was measured to be between 2.0 μM and 5.0 μM)
CN(C)C(=O)N1CC2(CCN(C3CCN(C(=O)OCC4CC4)CC3)CC2)c2cc(F)ccc21 [compound 595]	25 to 100	xxx (activity was measured to be less than 2.0 μM)	25 to 100	xxx (activity was measured to be less than 2.0 μM)
CCCOC(=O)N1CCC(N2CCC3(CC2)CN(CCOC)c2ccc(F)cc23)CC1 [compound 596]	25 to 100	xxx (activity was measured to be less than 2.0 μM)	25 to 100	xxx (activity was measured to be less than 2.0 μM)
Cc1ccc2c(c1)C1(CCN(C3CC4CCC3C4)CC1)CN2C(=O)c1ccco1 (stereo not shown) [compound 597]	25 to 100	x (activity was measured to be greater than 5.0 μM)	< 25	x (activity was measured to be greater than 5.0 μM)
CCOC(=O)N1CCC(N2CCC3(CC2)CN(C(=O)N2CCCCC2)c2ccc(F)cc23)CC1 [compound 598]	25 to 100	xxx (activity was measured to be less than 2.0 μM)	25 to 100	xxx (activity was measured to be less than 2.0 μM)
COc1cc2c(cc1OC)C1(CCN(C3CCCCCCCCCCC3)CC1)C[C@@H]2NC(C)=O [compound 599]	25 to 100	x (activity was measured to be greater than 5.0 μM)	25 to 100	x (activity was measured to be greater than 5.0 μM)
CC(=O)N1CC2(CCN(CC3=C(C)C=CCC3(C)C)CC2)c2cc(F)ccc21 [compound 600]	< 25	x (activity was measured to be greater than 5.0 μM)	< 25	x (activity was measured to be greater than 5.0 μM)
CC(=O)N[C@H]1CCC2(CCN(CC3CCOC3)CC2)c2ccccc21 (stereo partly shown) [compound 602]	25 to 100	xxx (activity was measured to be less than 2.0 μM)	25 to 100	xx (activity was measured to be between 2.0 μM and 5.0 μM)
CCOC(=O)N1CCC(N2CCC3(CC2)CN(C(C)=O)c2ccc(C(F)(F)F)cc23)CC1 [compound 603]	25 to 100	xxx (activity was measured to be less than 2.0 μM)	25 to 100	xxx (activity was measured to be less than 2.0 μM)
CCCCOC(=O)N1C2CCC1CC(N1CCC3(CC1)CN(C(C)=O)c1ccccc13)C2 (stereo not shown) [compound 604]	< 25	x (activity was measured to be greater than 5.0 μM)	25 to 100	xxx (activity was measured to be less than 2.0 μM)
CC(=O)N[C@H]1CCC2(CCN(CC3CCCCC3)CC2)c2ccccc21 [compound 605]	25 to 100	xxx (activity was measured to be less than 2.0 μM)	25 to 100	xxx (activity was measured to be less than 2.0 μM)
CCOC(=O)N1C2CCC1CC(N1CCC3(CC1)CN(C(C)=O)c1ccc(C(C)C)cc13)C2 (stereo not shown) [compound 606]	25 to 100	xxx (activity was measured to be less than 2.0 μM)	25 to 100	xxx (activity was measured to be less than 2.0 μM)
COCCOC(=O)N1C2CCC1CC(N1CCC3(CC1)CN(C(C)=O)c1ccccc13)C2 (stereo not shown) [compound 607]	25 to 100	xxx (activity was measured to be less than 2.0 μM)	25 to 100	xxx (activity was measured to be less than 2.0 μM)
CN(C)C(=O)N1CC2(CCN(C[C@@H]3CCN(c4cnccn4)C3)CC2)c2cc(F)ccc21 [compound 608]	25 to 100	xxx (activity was measured to be less than 2.0 μM)	25 to 100	xxx (activity was measured to be less than 2.0 μM)
O=C1CC2(CCN(C3CCCCCC3)CC2)c2ccc(Cl)cc21 [compound 609]	25 to 100	xx (activity was measured to be between 2.0 μM and 5.0 μM)	25 to 100	xxx (activity was measured to be less than 2.0 μM)
CCOC(=O)N1CCC(N2CCC3(CC2)CN(C(C)=O)c2c(C)cc(C)cc23)CC1 [compound 610]	25 to 100	xxx (activity was measured to be less than 2.0 μM)	25 to 100	xxx (activity was measured to be less than 2.0 μM)
CC(=O)N1CC2(CCN(C3CCN(c4cncc(C5CC5)n4)CC3)CC2)c2ccccc21 [compound 611]	25 to 100	xxx (activity was measured to be less than 2.0 μM)	< 25	x (activity was measured to be greater than 5.0 μM)
O=C(O)C1CC2(CCN(C3CCCCC3)CC2)c2ccccc21 (stereo not shown) [compound 612]	< 25	x (activity was measured to be greater than 5.0 μM)	25 to 100	x (activity was measured to be greater than 5.0 μM)
